Assay results reported in patent US20230165836A1, “ALPHA-2 ADRENERGIC RECEPTOR AGONISTS FOR THE TREATMENT OF CANCER” (UNIVERSITÉ CATHOLIQUE DE LOUVAIN, priority 2020, published 2023).

Key:
CT26 colon cancer = CT26 colon cancer tumor growth (FIGS. 15-16); assay type: in vivo, C57BL/6J mice; conditions: CT26 colon cancer, FIGS. 15A, 16A
Text: Tumor infiltration of CD8+cells evaluated at the day of sacrifice by FACS (FIG. 15B). Tumor growth of CT26 colon cancer in NSG mice treated with PBS (Control), clonidine, clonidine mixed with yohimbine, or yohimbine alone (FIG. 15C). FIGS. 16A-C is a set of curves and histograms showing the tumor growth of CT26 colon cancer in C57BL/6J mice treated with PBS (Control, circles), guanabenz (diamonds), guanabenz mixed with yohimbine (light grey inverted triangles), or yohimbine alone (dark grey inverted triangles) (FIG. 16A); the tumor infiltration of CD8+ cells evaluated at the day of sacrifice by FACS (FIG. 16B); and the tumor growth of CT26 colon cancer in NSG mice treated with PBS (Control), guanabenz, guanabenz mixed with yohimbine, or yohimbine alone (FIG. 16C). […] For evaluation of yohimbine on the effect of clonidine and guanabenz, the mice were randomized into different groups when tumors size arrived around 100 mm^3 and received daily injections of guanabenz (5 mg/kg, i.p.), yohimbine (10 mg/kg), a mix of guanabenz (5 mg/kg, i.p.) and yohimbine (10 mg/kg, i.p.), clonidine (5 mg/kg, i.p.), a mix of clonidine (5 mg/kg, i.p.) and yohimbine (10 mg/kg, i.p.) or vehicle control.

B16F1 melanoma = B16F1 melanoma in immune deficient mice; assay type: in vivo; conditions: B16F1 in immune deficient NSG mice; 5 mg/kg, i.p.
Experimental: FIGS. 10A-B is a set of curves showing the tumor growth of B16F1 melanoma in C57BL/6J (FIG. 10A) or immunodeficient NSG mice (FIG. 10B) treated with PBS (Control, curve 1) or clonidine (5 mg/kg, i.p., curve 2).
FIGS. 11A-B is a set of curves showing the tumor growth of B16F1 melanoma in C57BL/6J (FIG. 11A) or NSG mice (FIG. 11B) treated with PBS (Control, curve 1) or guanfacine (5 mg/kg, i.p., curve 2).

JAK2V617F allele burden = experiment: Myelofibrosis by JAK2V617F bone marrow transplantation, allele burden; assay type: in vivo, C57BL/6 mice; conditions: 5 mg/kg i.p. daily; Day 7 versus Day 0
Experimental: Bone marrow from primary CD45.2 JAK2V617F mice was mixed 1:1 with CD45.1 C57BL/6 marrow and transplanted into lethally irradiated CD45.2 C57BL/6 recipients. 1 month after bone marrow transplantation, mice were randomized into three groups and received daily i.p injection of 5 mg/kg of clonidine, guanabenz or PBS. Blood was taken on Day 0 (Just before the treatment) and on Day 7 (7 days after the treatment). The allele burden was assessed as a fraction of CD45.2 cells along total CD45 cells in the blood of mice.
Decreased JAK2V617F allele burden is a golden standard method to evaluate the disease progression of MF.

prostate cancer = experiment: Xenograft model of prostate cancer in NSG mice treated with PBMC; assay type: in vivo

For `Clc1cccc(Cl)c1N=C1NCCN1` [clonidine], the tumor growth (CT26 colon cancer) was “inhibited CT26 colon cancer tumor growth”, the tumor growth (B16F1 melanoma) was “No tumor inhibition was found” and the “JAK2V617F allele burden (CD45.2 cells among total CD45 cells in blood)” value (JAK2V617F allele burden) was “decrease of JAK2V617F allele burden in a number of mice”. For the same compound, the tumor growth (prostate cancer) was “strong tumor inhibition”.
